# Experimental data: patent US11192865B2, “Benzosulfonyl compounds” (Vivace Therapeutics, Inc., priority 2017, dated 2021)
# Tested on: 8XTBD luciferase reporter
# Experiment: YAP Reporter Assay
# Format: cell-based
# Settings: Homo sapiens, HEK-293T; HEK293T cells stably transfected with 8XTBD luciferase reporter and pRLTK; 24-hr incubation; starting from 3 μM, 1:3 dilution, 10 points; read-out: Firefly Luciferase IC50
# Method: HEK293T cells stably transfected with 8XTBD luciferase reporter and pRLTK in 384-well plates were treated with the test compounds, starting from 3 μM (final concentration in assay plate), 1:3 dilution, and 10 points in quadruplicates. Post 24-hr incubation with compounds at 37° C. and 5% CO2, cells were lysed and 8XTBD-driven firefly luciferase and control TK-driven renilla luciferase activities were measured using Promega Dual-Luciferase Reporter Assay System.
# Reagents: The reagents used for this study are: DMEM: Invitrogen #11960077, Dual-Glo Luciferase Assay System: Promega-E2980, Puromycin Dihydrochloride: Invitrogen-A1113803, 384-well plate: PerkinElmer-6007480, L-GLUTAMINE: Invitrogen-25030164, Hygromycin B: Invitrogen-10687010, and Penicillin-Streptomycin: Merk-TMS-AB2-C
# Media: The media used for this assay were: Culture Medium: DMEM+1 ug/mL puromycin+200 ug/mL hygromycin (with 10% FBS+1 mM L-glutamine); and Assay Medium: DMEM (with 10% FBS+1 mM L-glutamine+1×P/S).
# Cell Plating: The appropriate media was warmed at 37° C. by water bath: Culture Medium, Assay Medium, 1* D-PBS, 0.05% trypsin-EDTA. The cells were trypsinized after removing all media, then washed with 1* sterile D-PBS and then with 2 ml 0.05% trypsin-EDTA. The cells were then incubated at RT for one minute. Then 10 ml/75 cm2 flask Assay Medium was added to each flask. Using a 10 ml pipette, the cells were then gently resuspended in the media, until the clumps completely disappeared. The cells were then transferred into 50 ml centrifuge tubes and were centrifuged at 800 rpm for 5 mins. The medium was removed and the cells were resuspended with Assay Medium. An aliquot of cells was used to count the cell density (cells/ml). The cell suspension was then diluted with Assay Medium to a concentration of 6×10^4 cells/ml. 50 ul cells suspension was then plated to 384-well plate (PerkinElmer-6007480), 3×10^3 cells/well and the cells were incubated in an incubator at 37° C., 5% CO2.
# Compound Treatment: In the afternoon (incubation of the plate with 3-4 hrs), the test compounds were added by Echo, starting from 3 uM (final concentration in the assay plate), 1:3 dilution, 10 points, quadruplicates. The plate was placed at 37° C., 5% CO2 incubator for 24 hrs.
# Detection: The Dual-Glo Luciferase Reagent was prepared by transferring the contents of one bottle of Dual-Glo Luciferase Buffer to one bottle of Dual-Glo Luciferase Substrate to create the Dual-Glo Luciferase Reagent. Mixing was performed by inversion until the substrate was thoroughly dissolved. After mixing, the reagent was aliquoted into 15 ml tubes. In the afternoon (24 hrs post compound treatment), the DMEM+ medium in the 384 well plates were aspirated by Microplate Washer.
# Measuring firefly luciferase activity: 20 ul Dual-Glo Luciferase Reagent was added to the 384-well plates. The plates were protected from light to prevent interference with the assay. The plates were shaken for 1 min followed centrifuging plates at 1000 rpm for 30 seconds. After waiting at least 10 minutes, the firefly luminescence was measured by Envision.
# Measuring renilla luciferase activity: 20 ul Stop-Glo Reagent was added to the 384-well plates. The plates were shaken for 1 min and then centrifuged at 1000 rpm for 30 seconds. After waiting at least 10 minutes, the renilla luminescence was measured by Envision.
# Compound IC50 and maximum inhibition on the firefly luciferase and renilla luciferase activities were reported separately.
row,Compound,IC50 [nM]
1,"Cc1nc(-c2cc(S(C)(=O)=O)ccc2NC2CCCCC2)no1 [Compound 3, N-cyclohexyl-2-(5-methyl-1,2,4-oxadiazol-3-yl)-4-(methylsulfonyl)aniline]",≤ 100
2,"Cn1ccc(-c2cc(S(C)(=O)=O)ccc2NC2CCCCC2)n1 [Compound 8, N-cyclohexyl-2-(1-methyl-1H-pyrazol-3-yl)-4-(methylsulfonyl)aniline]",100 to 1000
3,"CS(=O)(=O)c1ccc(NC2CCCCC2)c(-n2ccnn2)c1 [Compound 9, N-cyclohexyl-4-(methylsulfonyl)-2-(1H-1,2,3-triazol-1-yl)aniline]",> 3000
4,"CS(=O)(=O)c1ccc(NC2CCCCC2)c(-n2cccn2)c1 [Compound 10, N-cyclohexyl-4-(methylsulfonyl)-2-(1H-pyrazol-1-yl)aniline]",1000 to 3000
5,"CS(=O)(=O)c1ccc(NC2CCCCC2)c(-n2ccnc2)c1 [Compound 11, N-cyclohexyl-2-(1H-imidazol-1-yl)-4-(methylsulfonyl)aniline]",> 3000
6,"CS(=O)(=O)c1ccc(NC2CCCCC2)c(-n2cncn2)c1 [Compound 12, N-cyclohexyl-4-(methylsulfonyl)-2-(1H-1,2,4-triazol-1-yl)aniline]",> 3000
7,"CS(=O)(=O)c1ccc(NC2CCCCC2)c(-n2nccn2)c1 [Compound 13, N-cyclohexyl-4-(methylsulfonyl)-2-(2H-1,2,3-triazol-2-yl)aniline]",100 to 1000
8,"CNS(=O)(=O)c1ccc(NC2CCCCC2)c(-c2nnn(-c3ccc(F)cc3)n2)c1 [Compound 16, 4-(cyclohexylamino)-3-(2-(4-fluorophenyl)-2H-tetrazol-5-yl)-N-methylbenzenesulfonamide]",100 to 1000
9,"CNS(=O)(=O)c1ccc(NC2CCCCC2)c(-c2nnn(C3CCCC3)n2)c1 [Compound 18, 4-(cyclohexylamino)-3-(2-cyclopentyl-2H-tetrazol-5-yl)-N-methylbenzenesulfonamide]",100 to 1000
10,"CNS(=O)(=O)c1ccc(NC2CCCCC2)c(-c2nnn(C)n2)c1 [Compound 22, 4-(cyclohexylamino)-N-methyl-3-(2-methyl-2H-tetrazol-5-yl)benzenesulfonamide]",≤ 100
11,"CNS(=O)(=O)c1ccc(NC2CCCCC2)c(-c2nnn(-c3ccccc3F)n2)c1 [Compound 23, 4-(cyclohexylamino)-3-(2-(2-fluorophenyl)-2H-tetrazol-5-yl)-N-methylbenzenesulfonamide]",100 to 1000
12,"CNS(=O)(=O)c1ccc(NC2CCCCC2)c(-c2nnn(CC(C)C)n2)c1 [Compound 27, 4-(cyclohexylamino)-3-(2-isobutyl-2H-tetrazol-5-yl)-N-methylbenzenesulfonamide]",100 to 1000
13,"CNS(=O)(=O)c1ccc(NC2CCCCC2)c(-c2nnn(C3CCN(C(=O)OC(C)(C)C)CC3)n2)c1 [Compound 28, tert-butyl 4-(5-(2-(cyclohexylamino)-5-(N-methylsulfamoyl)phenyl)-2H-tetrazol-2-yl)piperidine-1-carboxylate]",> 3000
14,"CNS(=O)(=O)c1ccc(NC2CCCCC2)c(-c2nnn(Cc3cccnc3)n2)c1 [Compound 29, 4-(cyclohexylamino)-N-methyl-3-(2-(pyridin-3-ylmethyl)-2H-tetrazol-5-yl)benzenesulfonamide]",≤ 100
15,"CNS(=O)(=O)c1ccc(NC2CCCCC2)c(-c2nnn(C3CCNCC3)n2)c1 [Compound 30, 4-(cyclohexylamino)-N-methyl-3-(2-(piperidin-4-yl)-2H-tetrazol-5-yl)benzenesulfonamide]",> 3000
16,"CNS(=O)(=O)c1ccc(NC2CCCCC2)c(-c2nnn(C3CCN(C(C)=O)CC3)n2)c1 [Compound 31, 3-(2-(1-acetylpiperidin-4-yl)-2H-tetrazol-5-yl)-4-(cyclohexylamino)-N-methylbenzenesulfonamide]",100 to 1000

# Other lines, results leading:
row,IC50 [nM],Compound
1,> 3000,"CC(C)(C)NS(=O)(=O)c1ccc(NC2CCCCC2)c(-c2nn[nH]n2)c1 [Compound 1, N-(tert-butyl)-4-(cyclohexylamino)-3-(2H-tetrazol-5-yl)benzenesulfonamide]"
2,> 3000,"CC(C)(C)NS(=O)(=O)c1ccc(NC2CCCCC2)c(-c2nnn(CCO)n2)c1 [Compound 2, N-(tert-butyl)-4-(cyclohexylamino)-3-(2-(2-hydroxyethyl)-2H-tetrazol-5-yl)benzenesulfonamide]"
3,> 3000,"CS(=O)(=O)c1ccc(NC2CCCCC2)c(-c2nn[nH]n2)c1 [Compound 4, N-cyclohexyl-4-(methylsulfonyl)-2-(2H-tetrazol-5-yl)aniline]"
4,100 to 1000,"Cn1nnc(-c2cc(S(C)(=O)=O)ccc2NC2CCCCC2)n1 [Compound 5, N-cyclohexyl-2-(2-methyl-2H-tetrazol-5-yl)-4-(methylsulfonyl)aniline]"
5,100 to 1000,"Cn1cc(-c2cc(S(C)(=O)=O)ccc2NC2CCCCC2)nn1 [Compound 6, N-cyclohexyl-2-(1-methyl-1H-1,2,3-triazol-4-yl)-4-(methylsulfonyl)aniline]"
6,> 3000,"Cn1cc(-c2cc(S(C)(=O)=O)ccc2NC2CCCCC2)cn1 [Compound 7, N-cyclohexyl-2-(1-methyl-1H-pyrazol-4-yl)-4-(methylsulfonyl)aniline]"
7,≤ 100,"CCn1nnc(-c2cc(S(=O)(=O)NC)ccc2NC2CCCCC2)n1 [Compound 14, 4-(cyclohexylamino)-3-(2-ethyl-2H-tetrazol-5-yl)-N-methylbenzenesulfonamide]"
8,≤ 100,"CCCn1nnc(-c2cc(S(=O)(=O)NC)ccc2NC2CCCCC2)n1 [Compound 15, 4-(cyclohexylamino)-N-methyl-3-(2-propyl-2H-tetrazol-5-yl)benzenesulfonamide]"
9,≤ 100,"CNS(=O)(=O)c1ccc(NC2CCCCC2)c(-c2nnn(C3CCC3)n2)c1 [Compound 17, 3-(2-cyclobutyl-2H-tetrazol-5-yl)-4-(cyclohexylamino)-N-methylbenzene sulfonamide]"
10,≤ 100,"CNS(=O)(=O)c1ccc(NC2CCCCC2)c(-c2nnn(Cc3ccccc3F)n2)c1 [Compound 19, 4-(cyclohexylamino)-3-(2-(2-fluorobenzyl)-2H-tetrazol-5-yl)-N-methylbenzenesulfonamide]"
11,≤ 100,"CNS(=O)(=O)c1ccc(NC2CCCCC2)c(-c2nnn(Cc3ccccc3)n2)c1 [Compound 20, 3-(2-benzyl-2H-tetrazol-5-yl)-4-(cyclohexylamino)-N-methylbenzenesulfonamide]"
12,≤ 100,"CCCCn1nnc(-c2cc(S(=O)(=O)NC)ccc2NC2CCCCC2)n1 [Compound 21, 3-(2-butyltetrazol-5-yl)-4-(cyclohexylamino)-N-methyl-benzenesulfonamide]"
13,> 3000,"CNS(=O)(=O)c1ccc(NC2CCCCC2)c(-c2nnn(C3CCN(C(=O)OC(C)(C)C)C3)n2)c1 (stereo not shown) [Compound 24, tert-butyl 3-(5-(2-(cyclohexylamino)-5-(N-methylsulfamoyl)phenyl)-2H-tetrazol-2-yl)pyrrolidine-1-carboxylate]"
14,> 3000,"CNS(=O)(=O)c1ccc(NC2CCCCC2)c(-c2nnn(C3CN(C(=O)OC(C)(C)C)C3)n2)c1 [Compound 25, tert-butyl 3-(5-(2-(cyclohexylamino)-5-(N-methylsulfamoyl)phenyl)-2H-tetrazol-2-yl)azetidine-1-carboxylate]"
15,≤ 100,"CNS(=O)(=O)c1ccc(NC2CCCCC2)c(-c2nnn(C(C)C)n2)c1 [Compound 26, 4-(cyclohexylamino)-3-(2-isopropyl-2H-tetrazol-5-yl)-N-methylbenzenesulfonamide]"
